The values below come from patent US20090105283A1, “3-HYDROQUINAZOLIN-4-ONE DERIVATIVES FOR USE AS STEAROYL CoA DESATURASE INHIBITORS” (priority 2007, published 2009).

pIC50: −log10 of the molar value.

The assay concerns the target T1, stearoyl-CoA desaturase (SCD) (Rattus norvegicus, UniProt P07308).
T1 construct: The microsomes were quickly thawed and added to assay buffer so that a concentration of 0.4 mg/ml was achieved; from tissue
T1 sequence (P07308 1-358): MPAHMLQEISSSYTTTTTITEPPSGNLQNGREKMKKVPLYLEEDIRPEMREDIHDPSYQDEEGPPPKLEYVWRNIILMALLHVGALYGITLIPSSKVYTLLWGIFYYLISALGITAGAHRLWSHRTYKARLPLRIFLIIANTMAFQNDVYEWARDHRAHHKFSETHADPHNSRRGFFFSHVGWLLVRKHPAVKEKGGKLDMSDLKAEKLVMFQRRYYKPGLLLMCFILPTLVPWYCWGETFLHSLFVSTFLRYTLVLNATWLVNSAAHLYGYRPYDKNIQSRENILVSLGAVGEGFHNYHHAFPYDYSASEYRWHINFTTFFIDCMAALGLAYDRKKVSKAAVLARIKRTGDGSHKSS
In words: SCD assay with rat liver microsomes ([3H]stearoyl CoA, adapted from Talamo and Bloch). Type of assay: biochemical. As to conditions: Table 1; rat liver microsomes 0.2 mg/ml assay final, [3H]stearoyl CoA substrate, 30 min preincubation, 45 min reaction, room temperature. From the text:
Male Spraque Dawley Rats were placed on regimented fasting protocol for one week to stimulate SCD enzymatic activity. 48-hour periods were alternated between feeding and fasting to induce and down-regulate SCD activity with SCD activity being induced via carbohydrate rich diet prior to liver perfusion and collection.
The rats were anesthetized with Isoflurane inhalation anesthetic, the liver perfused with cold phosphate buffered saline (PBS), weighed, and chilled in cold homogenization buffer (250 mM sucrose, 10 mM Tris, 1 mM EDTA, pH 7.6.
The livers were finely minced and placed in homogenization tube. 40 mL of homogenization buffer was added to the homogenization tube and the liver homogenized and centrifuged in a pre-chilled […] for 10 min at 4° C.
Following centrifugation, the supernatant was collected and the pellet removed and discarded. The supernatant was centrifuge at 10,000 G for 35 minutes. Following centrifugation, the supernatant was collect and the pellet discarded. The supernatant was then centrifuged in a pre-chilled 45-Ti rotor at 130,000 G (41,000 RPM) for 90 minutes at 4° C.
The supernatant was then aspirated off and the collected microsomal pellet washed in 25 mL of Glycerol PBS (1×PBS 7.4, 20% Glycerol) and resuspended in 4-5 volumes of Glycerol PBS.
The protein concentration of the microsomal preparation was determined by BCA assay (Pierce) and the microsomes were aliquoted and stored at −80° C.
Biobeads were ground to a smaller size in a mortar and pestle and resuspended in 3.6% TCA. The beads were then filtered through […] mesh.
SCD was determined in the desaturase assay buffer. This assay buffer contained 0.1 M Tris buffer, pH 7.2, 2 mM NADH, 4.8 mM ATP, 0.5 mM CoA, 4.8 mM MgCl2, and 0.1% BSA.
1 μl of each compound of Formula I was added to an assay plate by a low volume (0.5-10 μL) multichannel pipette. A DMSO control was also prepared. The microsomes were quickly thawed and added to assay buffer so that a concentration of 0.4 mg/ml was achieved (0.2 mg/ml assay final). 50 μl of the microsome suspension in assay buffer was then added into each well in the compound assay plate, the plate was covered, and the microsomes preincubated with the compounds for 30 minutes on the orbital shaker, 50-75 rpm, at room temperature.
The reaction mixtures were then incubated for 45 minutes on the orbital shaker at 50-75 rpm at room temperature.
The reaction was terminated by the addition of 10 μl of 21% trichloroacetic acid (TCA) to the reaction mixture followed incubation on the orbital shaker for 30 minutes at 50-75 rpm at room temperature followed by centrifugation for 5 minutes at 3700 rpm.
50 μl of a 6% Bio-Bead suspension in H2O was added to the reaction mixture and the assay plate was sealed. The Bio-Bead mixture was incubated on the orbital shaker for 1 hour, 100-150 rpm at room temperature, and then the mixture was centrifuged at 2000 g for 5 minutes to pellet the Bio-Beads.
25 μl of the supernatant was harvested from each well and transferred to a detection plate. 100 μl of OptiPhase SuperMix scinitillation cocktail (containing sufficient NaOH to neutralize the TCA) was added and the solutions mixed by vigorous shaking (300-400 rpm) for 5 minutes at room temperature.
As for `COc1ccc(Cn2cnc3ccc(NC(=O)COC(C)=O)cc3c2=O)cc1` [C, (N-{3-[(4-methoxyphenyl)methyl]-4-oxo-3-hydroquinazolin-6-yl}carbamoyl)methyl acetate], the pIC50 was 5.46. Compound `COc1ccc(Cn2cnc3ccc(NC(=O)CO)cc3c2=O)cc1` [CI, 2-hydroxy-N-{3-[(4-methoxyphenyl)methyl]-4-oxo(3-hydroquinazolin-6-yl)}acetamide] had a pIC50 of 5.09. In the case of `CC(=O)OCC(=O)Nc1ccc2c(=O)n(Cc3ccc(F)c(F)c3)cnc2c1` [CII, (N-{3-[(3,4-difluorophenyl)methyl]-4-oxo-3-hydroquinazolin-7-yl}carbamoyl)methyl acetate], the pIC50 is 5.12. As for `O=C(CO)Nc1ccc2c(=O)n(Cc3ccc(F)c(F)c3)cnc2c1` [CIII, N-{3-[(3,4-difluorophenyl)methyl]-4-oxo(3-hydroquinazolin-7-yl)}-2-hydroxyacetamide], the pIC50 is 5.36. In turn, `O=C(Nc1ccc2ncn(Cc3ccc(Cl)c(Cl)c3)c(=O)c2c1)OCc1ccccc1` [I, N-{3-[(3,4-dichlorophenyl)methyl]-4-oxo(3-hydroquinazolin-6-yl)}(phenylmethoxy)carboxamide] showed a pIC50 of 6.80. With `O=C(CCc1ccccc1)Nc1ccc2ncn(Cc3ccc(Cl)c(Cl)c3)c(=O)c2c1` [II, N-{3-[(3,4-dichlorophenyl)methyl]-4-oxo(3-hydroquinazolin-6-yl)}-3-phenylpropanamide], the pIC50 is 5.62.

In the case of `CCCCCC(=O)Nc1ccc2ncn(Cc3ccc(Cl)c(Cl)c3)c(=O)c2c1` [III, N-{3-[(3,4-dichlorophenyl)methyl]-4-oxo-3-hydroquinazolin-6-yl}hexanamide], the pIC50 is 5.27. To `CCCCCNC(=O)Nc1ccc2ncn(Cc3ccc(Cl)c(Cl)c3)c(=O)c2c1` [IV, N-{3-[(3,4-dichlorophenyl)methyl]-4-oxo(3-hydroquinazolin-6-yl)}(pentylamino)carboxamide] belongs 5.44; to `CC(C)OC(=O)Nc1ccc2ncn(Cc3ccc(Cl)c(Cl)c3)c(=O)c2c1` [IX, N-{3-[(3,4-dichlorophenyl)methyl]-4-oxo(3-hydroquinazolin-6-yl)}(methylethoxy)carboxamide], 4.85; to `COc1ccccc1OCC(=O)Nc1ccc2c(=O)n(Cc3ccc(Cl)c(Cl)c3)cnc2c1` [L, N-{3-[(3,4-dichlorophenyl)methyl]-4-oxo(3-hydroquinazolin-7-yl)}-2-(2-methoxyphenoxy)acetamide], 5.84.

Compound `O=C(COc1cccnc1)Nc1ccc2c(=O)n(Cc3ccc(Cl)c(Cl)c3)cnc2c1` [LI, N-{3-[(3,4-dichlorophenyl)methyl]-4-oxo(3-hydroquinazolin-7-yl)}-2-(3-pyridyloxy)acetamide] gave a pIC50 of 5.84. `O=C(Nc1ccc2c(=O)n(Cc3ccc(Cl)c(Cl)c3)cnc2c1)OCc1ccccc1` [LII, N-{3-[(3,4-dichlorophenyl)methyl]-4-oxo(3-hydroquinazolin-7-yl)}(phenylmethoxy)carboxamide]: the negative-log IC50 (pIC50) was 7.30. Compared with the last compound, the pIC50 is 1.46 log units higher.

In the case of `O=C(COc1ccccc1)Nc1ccc2c(=O)n(Cc3ccc(Cl)c(Cl)c3)cnc2c1` [LIII, N-{3-[(3,4-dichlorophenyl)methyl]-4-oxo(3-hydroquinazolin-7-yl)}-2-phenoxyacetamide], the pIC50 was 5.77. Compound `O=C(CSc1ccncc1)Nc1ccc2ncn(Cc3ccc(Cl)c(Cl)c3)c(=O)c2c1` [LIV, N-{3-[(3,4-dichlorophenyl)methyl]-4-oxo(3-hydroquinazolin-6-yl)}-2-(4-pyridylthio)acetamide] gave a pIC50 of 5.59. In turn, `O=C(Nc1ccc2c(=O)n(Cc3cccc(Cl)c3)cnc2c1)OCc1cccnc1` [LIX, N-{3-[(3-chlorophenyl)methyl]-4-oxo(3-hydroquinazolin-7-yl)}(3-pyridylmethoxy)carboxamide] had a pIC50 of 6.55. This pIC50 lies 0.96 log units higher than the previous one. The same measure for `O=C(CSc1ncccn1)Nc1ccc2ncn(Cc3ccc(Cl)c(Cl)c3)c(=O)c2c1` [LV, N-{3-[(3,4-dichlorophenyl)methyl]-4-oxo(3-hydroquinazolin-6-yl)}-2-pyrimidin-2-ylthioacetamide]: 5.27.
